These results are taken from paper PMC5912973 (ChemMedChem, 2018).

The test system of one series is HIVDRV^RP30. Briefly: microbe, parasite or virus in culture. In kind it is cell-based, HIV-1. Conditions: for fold change of IC50 relative to HIV-1NL4-3: HIVDRV^RP30 vs wild type.
The next series concerns HIVSQV-5 μM. Briefly: microbe, parasite or virus in culture. In kind it is cell-based, HIV-1.
In another series the test system is HIVATV-5 μM. Briefly: microbe, parasite or virus in culture. Format: cell-based, HIV-1.
Another series concerns wild-type HIV-1NL4-3. Briefly: Antiviral p24 assay in MT-4 cells, wild-type HIV-1NL4-3. Format: cell-based.
The test system of another series is HIVDRV^RP20. Briefly: microbe, parasite or virus in culture. Format: cell-based, HIV-1. Conditions: for fold change of IC50 relative to HIV-1NL4-3: HIVDRV^RP20 vs wild type.
The subject of another series is HIVDRV^RP51. Briefly: microbe, parasite or virus in culture. Format: cell-based, HIV-1. Conditions: for fold change of IC50 relative to HIV-1NL4-3: HIVDRV^RP51 vs wild type.
In another series the test system is HIVLPV-5 μM. Briefly: microbe, parasite or virus in culture. In kind it is cell-based, HIV-1.
For a further series, the system named is HIVIDV-5 μM. Briefly: microbe, parasite or virus in culture. Format: cell-based, HIV-1.
A further series concerns HIVAPV-5 μM. The series is described as follows: microbe, parasite or virus in culture. In kind it is cell-based, HIV-1.
The subject of another series is HIVNFV-5 μM. Briefly: microbe, parasite or virus in culture. Format: cell-based, HIV-1.
The subject of the next series is HIVTPV-15 μM. Briefly: microbe, parasite or virus in culture. In kind it is cell-based, HIV-1.
Another series deals with HIV-1 protease (Human immunodeficiency virus type 1 group M subtype B, UniProt P04585). Briefly: HIV-1 protease inhibitory activity, assay protocol of Toth and Marshall. Particulars: as printed in text or footnote. In kind it is biochemical.
For series [1] the following is noted: brain concentration 32.6 nM at 360 min; ref [23]; cited from earlier work.
In series [2] the target is dimerization of HIV-1 protease subunits (Human immunodeficiency virus type 1 group M subtype B, UniProt P12497). The series is described as follows: FRET-based HIV-1 expression assay of protease dimerization in COS-7 cells. Format: cell-based.
A further series concerns HIVLAI. Briefly: Antiviral activity in MT-2 human T-lymphoid cells exposed to HIVLAI. Conditions: MT-2/HIVLAI. In kind it is cell-based, HIV-1.
Where [3] appears, read: read-out: IC50 ± SD, MT-4 cells, HIVDRV^RP30, p24 assay.
Setting [4] is: read-out: Mean IC50 ± SD, MT-4 cells, HIVATV-5 μM, p24 assay.
Setting [5] is: read-out: IC50 ± SD, MT-4 cells, HIVNL4-3 WT, p24 assay.
Setting [6] is: read-out: IC50 ± SD, MT-4 cells, HIVDRV^RP20, p24 assay.
The mark [7] stands for this setting: read-out: IC50 ± SD, MT-4 cells, HIVDRV^RP51, p24 assay.
Setting [8] is: Human immunodeficiency virus 1, MT4, read-out: IC50 ± SD.
The mark [9] stands for this setting: Human immunodeficiency virus 1, MT4, read-out: Mean IC50 ± SD.

As a reminder, the IC50 is the concentration that inhibits the measured activity by half. As usually defined, the Ki is the dissociation constant of the complex between target and ligand, obtained from inhibition or displacement. Read a low Ki as higher affinity.

Like-named read-outs stand apart in the source and are kept apart here.

Take `COC(=O)N[C@H](C(=O)N[C@@H](Cc1ccccc1)[C@@H](O)CN(Cc1ccc(-c2ccccn2)cc1)NC(=O)[C@@H](NC(=O)OC)C(C)(C)C)C(C)(C)C` [ATV]: the “fold change of IC50 relative to HIV-1NL4-3” value in the series with HIVDRV^RP30, in the series with HIVDRV^RP20 and in the series with HIVDRV^RP51 was over 192 fold throughout. Moreover, the IC50 in the series with HIVDRV^RP30 (setting [3]) is over 1000 nM; in the series with HIVSQV-5 μM (read-out: Mean IC50 ± SD, MT-4 cells, HIVSQV-5 μM, p24 assay), 548 ± 177 nM; in the series on HIVATV-5 μM (setting [4]), over 1000 nM; in the series with wild-type HIV-1NL4-3 (setting [5]), 5.2 ± 0.3 nM; with HIVDRV^RP20 (setting [6]), over 1000 nM; with HIVDRV^RP51 (setting [7]) it was over 1000 nM. The IC50 was 36 ± 9 nM in the series with HIVLPV-5 μM (read-out: Mean IC50 ± SD, MT-4 cells, HIVLPV-5 μM, p24 assay); 59 ± 13 nM in the series on HIVIDV-5 μM (read-out: Mean IC50 ± SD, MT-4 cells, HIVIDV-5 μM, p24 assay); 2.4 ± 0.7 nM in the series on HIVAPV-5 μM (read-out: Mean IC50 ± SD, MT-4 cells, HIVAPV-5 μM, p24 assay); 19 ± 1 nM in the series with HIVNFV-5 μM (read-out: Mean IC50 ± SD, MT-4 cells, HIVNFV-5 μM, p24 assay); over 1000 nM in the series on HIVTPV-15 μM (read-out: Mean IC50 ± SD, MT-4 cells, HIVTPV-15 μM, p24 assay). For the same molecule, the “fold-change of IC50 vs HIVNL4-3 WT” value is recorded as 105 fold in the series on HIVSQV-5 μM (HIVSQV-5 μM); over 192 fold in the series with HIVATV-5 μM (HIVATV-5 μM); 7 fold in the series on HIVLPV-5 μM (HIVLPV-5 μM); 11 fold in the series with HIVIDV-5 μM (HIVIDV-5 μM); 0.5 fold with HIVAPV-5 μM (HIVAPV-5 μM); 3.7 fold in the series with HIVNFV-5 μM (HIVNFV-5 μM). The “fold-change of IC50 vs HIVNL4-3 WT” value with HIVTPV-15 μM (HIVTPV-15 μM) is on record as over 192 fold.

Turning to `CC(C)CN(C[C@@H](O)[C@H](Cc1ccccc1)NC(=O)O[C@H]1CO[C@H]2OCC[C@H]21)S(=O)(=O)c1ccc(N)cc1` [DRV, darunavir], the IC50 in the series with HIVDRV^RP30 (setting [8]) is 134 ± 43 nM; in the series with HIVSQV-5 μM (setting [9]), 22 ± 6 nM; with HIVATV-5 μM (setting [9]) it was 26 ± 1 nM; with wild-type HIV-1NL4-3 (setting [8]), 3.7 ± 0.7 nM; with HIVDRV^RP20 (setting [8]), 60 ± 6 nM; in the series with HIVDRV^RP51 (setting [8]) it was 4670 ± 1260 nM. Further, the IC50 in the series with HIVLPV-5 μM (setting [9]) worked out at 275 ± 64 nM; in the series with HIVIDV-5 μM (setting [9]) it was 42 ± 1 nM; in the series with HIVAPV-5 μM (setting [9]), 43 ± 22 nM; in the series on HIVNFV-5 μM (setting [9]), 6.1 ± 0.8 nM; in the series with HIVTPV-15 μM (setting [9]), 41 ± 3 nM.

Turning to `CC(C)CN(C[C@@H](O)[C@H](Cc1cc(F)cc(F)c1)NC(=O)O[C@H]1C2CO[C@H]3OC[C@@H]1C3C2)S(=O)(=O)c1ccc(N)cc1` (stereo partly drawn) [Inhibitor 4, (3S,7 aS,8S)-Hexahydro-4H-3,5-methanofuro[2,3-b]pyran-8-yl((2S,3R)-4-((4-amino-N-isobutylphenyl)sulfonamido)-1-(3,5-difluorophenyl)-3-hydroxybutan-2-yl)carbamate], the figures for the “fold change of IC50 relative to HIV-1NL4-3” value in the series on HIVDRV^RP30, with HIVDRV^RP20 and in the series on HIVDRV^RP51 were 1.9 fold, 4 fold and 82 fold, respectively. Besides, the IC50 in the series on HIVDRV^RP30 (setting [3]) stood at 11 ± 13 nM; with wild-type HIV-1NL4-3 (setting [5]) it was 5.9 ± 0.4 nM; with HIVDRV^RP20 (setting [6]), 24 ± 9 nM; with HIVDRV^RP51 (setting [7]), 486 ± 52 nM. Also, affinity at HIV-1 protease was put at a Ki of 0.004 nM.

Turning to `CC(C)CN(C[C@@H](O)[C@H](Cc1cc(F)cc(F)c1)NC(=O)O[C@H]1C2CO[C@H]3OC[C@@H]1C3C2)S(=O)(=O)c1ccc2nc(NC3CC3)sc2c1` (stereo partly drawn) [Inhibitor 5, (3S,7 aS,8S)-Hexahydro-4H-3,5-methanofuro[2,3-b]pyran-8-yl((2S,3R)-4-((2-(cyclopropylamino)-N-isobutylbenzo[d]thiazole)-6-sulfonamido)-1-(3,5-difluorophenyl)-3-hydroxybutan-2-yl)carbamate], in series [1], the “brain drug level relative to its IC50 value” was about 1880 fold. Moreover, the “fold change of IC50 relative to HIV-1NL4-3” value in the series with HIVDRV^RP30 is on record as 1 fold; in the series on HIVDRV^RP20, 0.1 fold; in the series with HIVDRV^RP51, 175 fold. Further, the IC50 worked out at 0.015 ± 0.015 nM with HIVDRV^RP30 (setting [3]); 0.02 ± 0.01 nM in the series on HIVATV-5 μM (setting [4]); 0.016 ± 0.017 nM with wild-type HIV-1NL4-3 (setting [5]); 0.0016 ± 0.002 nM in the series on HIVDRV^RP20 (setting [6]); 2.8 ± 0.2 nM in the series on HIVDRV^RP51 (setting [7]). Further, the “fold-change of IC50 vs HIVNL4-3 WT” value with HIVSQV-5 μM (HIVSQV-5 μM) is listed as 0.01 fold; in the series on HIVATV-5 μM (HIVATV-5 μM), 1.3 fold; with HIVLPV-5 μM (HIVLPV-5 μM), 0.0002 fold; in the series on HIVIDV-5 μM (HIVIDV-5 μM), 0.02 fold; in the series on HIVAPV-5 μM (HIVAPV-5 μM), 0.0006 fold; in the series on HIVNFV-5 μM (HIVNFV-5 μM), 0.04 fold. Also, the “fold-change of IC50 vs HIVNL4-3 WT” value in the series with HIVTPV-15 μM (HIVTPV-15 μM) is on record as 0.02 fold. Besides, the “concentration at which dimerization of protease subunits is blocked” value in [2] was found to be 0.1 nM. Besides, the affinity at HIV-1 protease, expressed as Ki, was 0.014 nM. Also, the “fold potency enhancement of antiviral IC50 over DRV” value in the series on HIVLAI (vs DRV) is “more than 150 fold”. Moreover, the “fold improvement of antiviral IC50 over compound 4” value in the series on HIVLAI (vs compound 4) came to 100 fold. For the same molecule, the “fold more potent than inhibitor 3 (antiviral)” value with HIVLAI (vs inhibitor 3) is “over 15 fold”.
